Measurements reported in US9636317B2, “Compositions and methods of use of phorbol esters” (priority 2007, dated 2017).
Several values for one entry are separate records, joined by “and”; a condition that tells them apart may be missing. Equal values may be shown once. Entries after “also recorded” stand apart in the source; their conditions may differ. Read-outs that look alike come from different tables or passages of the source.

Tests used:
[1] = tested on: metastatic liver cancer; experiment: Treatment of liver cancer (patient case); type: in vivo, human; details: three injections of 0.19 mg TPA; before 50,000+
Text: Patient X, age ? was diagnosed with metastatic liver cancer. Their initial alpha fetoprotein level was 48,813. They were given chemotherapy and radiation treatments but their alpha fetoprotein level remained elevated at 50,000+.

[2] = Anti-aging properties of TPA (patient case); type: in vivo, human; details: 1.25 ampoules of 0.125 mg/m^2 every other day for two months
Method: Patient eight, person, was being treated for prostate hypertrophy with 1.25 ampoules of 0.125 mg/m^2 every other day for two months.

[3] = tested on: relapsed/refractory AML, other myeloid malignancies, Hodgkin's Disease, non-Hodgkin's lymphoma, solid tumors; experiment: TPA Phase 1 study in relapsed/refractory malignancies; type: in vivo
Text: An initial TPA Phase 1 study enrolled 35 patients [23 with relapsed/refractory AML, 2 with other myeloid malignancies (CML-blast crisis, myelodysplasia with excess blasts), 3 with Hodgkin's Disease, 3 with non-Hodgkin's lymphoma and 4 with solid tumors]. The majority of patients had relapsed/refractory AML. Our clinical results include one AML patient with stable disease for >5 months, who received 8 TPA infusions. In a second AML patient, a pronounced (5-fold) decline in the number of circulating blasts was seen following TPA administration. This decline in leukemic blasts persisted for 4 weeks, and the patient eventually died from a fungal infection.

[4] = Treatment of prostate hypertrophy (patient case); type: in vivo, human
Method: Patient eight, diagnosed with prostate hypertrophy. They were injected with 1 ampoule containing 0.19 mg of TPA (0.125 mg/m^2) every other day for four weeks, then 0.24 mg of TPA (1.25×0.125 mg/m^2) every other day for 2 weeks, and 0.26 mg of TPA (1.5×0.125 mg/m^2) every other day for an additional 3 weeks. Their PSA index is now below 3.0.

[5] = tested on: terminal lung cancer; experiment: Treatment of lung cancer (patient case); type: in vivo, human; details: 35 injections, 0.19 to 0.26 mg TPA three to four times a week
Text: Patient ten was diagnosed with terminal lung cancer which was refractory to chemotherapy. The cancer metastasized into their bones leaving them unable to walk.

[6] = tested on: terminal breast cancer; experiment: Treatment of breast cancer (patient case); type: in vivo, human; details: 35 injections, 0.18 to 0.26 mg TPA three to four times a week
Text: Patient six was diagnosed with terminal breast cancer. They were unresponsive to either radiation or chemotherapy and the cancer had metastasized into the bone leaving their wheelchair bound.

[7] = tested on: CD3, CD4 and CD8 levels in peripheral blood; experiment: Third clinical study of HIV+ patients: CD3, CD4, CD8 by flow cytometry; type: in vivo, human; set-up: unit not given here; details: one value per patient
Method: (§1) Six patients, two males and four females between the ages of 37 and 52 years of age (Patients #13-18), were treated with TPA. Four of these patients previously received TPA treatment in combination with anti-HIV drugs in the two previous clinical studies. The two remaining patients had never been treated with TPA, but had previously received anti-HIV drug regimens. All treatments were stopped three days prior to the initiation of the third clinical study and were not resumed until 60 days after completion of the TPA treatment. The resumption of the standard HIV treatments was required by local health authorities.
(§2) Each patient in the study received 150 μg of TPA in 200 ml of sterile saline by intravenous infusion over a 1.5 to 2 hour period daily for 60 days for a total administered dose of 9.0 mg. Following completion of the 60 days of TPA therapy, these patients remained under observation for an additional 60 days though the received no further treatment.
(§3) CD3, CD4 and CD8 levels in peripheral blood were quantitated prior to starting treatment, and again at 30 and 60 days using flow cytometry and the appropriate antibodies obtained from B.D. Bioscience, San Diego, Calif. Viral load was determined using conventional methods at Kuang Ann men Hospital, Beijing, China. Patients RBC, WBC, platelets and hemoglobin levels were also measured.

[8] = tested on: HIV; type: in vivo; details: for HIV: antiretroviral therapy stopped, one value per patient
Method: as §1, with “The two remaining patients had never been treated with TPA, but had previously received anti-HIV drug regimens.” left out
as §2, §3

[9] = tested on: pancreatic cancer, non-small-cell lung cancer, nasopharyngeal carcinoma; experiment: TPA as an adjuvant to traditional neoplasm treatments (patient cases); type: in vivo, human
Method: Patient three was diagnosed with terminal metastasized pancreatic cancer. They received five injections of 0.18 mg TPA (0.125 mg/m^2) per week for 12 weeks in addition to chemotherapy.
Patient nine was diagnosed with non-small-cell lung cancer. The cancer had metastasized and was refractory to Tarceva® (erlotinib) and Iressa™ (gefitinib). The patient was treated with a combination of gemcitabine and cisplatin according to standard protocols accompanied by an injection of 0.19 mg of TPA (0.125 mg/m^2) each weekday for eight weeks. […] They have been in remission since Jun. 30, 2010.
Patient thirteen was diagnosed with terminal nasopharyngeal carcinoma and treated with both chemotherapy and radiotherapy. They received injections of 0.19 mg of TPA (0.125 mg/m^2) of TPA a day for five days prior to beginning radiotherapy and then 0.19 mg of TPA (0.125 mg/m^2) every other day for a total of 20 injections.

[10] = Treatment of myasthenia gravis (patient case); type: in vivo, human; details: 35 injections of TPA, concurrent dexamethasone
Method: Patient eleven, suffered from myasthenia gravis for more than 40 years. They were taking dexamethasone and concurrently and was injected with 1 ampoule containing 0.19 mg of TPA (0.125 mg/m^2) every other day for four weeks, then 0.24 mg of TPA (1.25×0.125 mg/m^2) every other day for 2 weeks, and 0.26 mg of TPA (1.5×0.125 mg/m^2) every other day for an additional 3 weeks for a total of 35 injections of TPA. They no longer need the dexamethasone and is now asymptomatic.

[11] = tested on: HIV-cytopathic effects on MT-4 cells; details: cited from earlier work

## CCCCCCCCCCCCCC(=O)O[C@@H]1[C@@H](C)[C@@]2(O)[C@@H](C=C(CO)C[C@]3(O)C(=O)C(C)=C[C@@H]23)[C@@H]2C(C)(C)[C@]12OC(C)=O [TPA, 12-O-tetradecanoylphorbol-13-acetate]
[1]
  alpha fetoprotein levels: returned to normal levels within four months
[2]
  skin: their skin became softer and had fewer wrinkles
[3]; 0.188 mg/m2 d1-5, 8-12
  patients with grade III non-hematologic dose limiting toxicities (DLT): 2 out of 3
[3]; d1-5 and 8-12
  maximum tolerated TPA dose as a single agent: 0.125 mg/m2/d
[3]; one AML patient, 8 TPA infusions
  duration of stable disease: > 5 months
[3]; one patient
  response of relapsed and refractory Hodgkin's disease: partial remission of a chest wall mass
[3]; second AML patient
  persistence of the decline in leukemic blasts: 4 weeks
[3]; second AML patient, following TPA administration
  decline in the number of circulating blasts: 5 fold
[4]; 0.19, 0.24, 0.26 mg TPA every other day over 9 weeks
  PSA index: below 3.0
[4]; same patient
  appearance: developed a more youthful appearance
[5]
  outcome, terminal lung cancer metastasized into bones: in remission and able to walk normally
[6]
  outcome, terminal breast cancer metastasized into the bone: in remission and able to walk normally
[7]; Sixty Days After TPA
  CD3: 902 and 2099 and 1305 and 317 and 579 and 2689
  CD4: 369 and 11 and 46 and 31 and 165 and 721
  CD8: 485 and 1507 and 1220 and 246 and 290 and 1897
[7]; Thirty Days After TPA, 150 μg i.v. daily for 60 days
  CD3: 1522 and 1865 and 1477 and 594 and 703 and 2771
[7]; Thirty Days After TPA
  CD4: 613 and 8 and 105 and 112 and 229 and 735
  CD8: 796 and 1408 and 1318 and 424 and 343 and 1938
[8]; Sixty Days After TPA
  HIV: 0.038 copies/ml (All Figures in Mill and Undetectable (2×) and 0.012 copies/ml (All Figures in Mill and 0.056 copies/ml (All Figures in Mill and 0.133 copies/ml (All Figures in Mill
[8]; Thirty Days After TPA
  HIV: 0.353 copies/ml (All Figures in Mill and 1.99 copies/ml (All Figures in Mill and 1.28 copies/ml (All Figures in Mill and 0.152 copies/ml (All Figures in Mill and 0.174 copies/ml (All Figures in Mill and 0.533 copies/ml (All Figures in Mill
[8]; six patients, 150 μg TPA daily for 60 days
  viral load rebound after discontinuation of antiretroviral therapy: no rebound in viral levels; also recorded: no viral load rebound
[9]; five injections of 0.18 mg TPA per week for 12 weeks in addition to chemotherapy, from 6.3 cm
  tumor in the pancreas: 2.4 cm
[9]; nasopharyngeal carcinoma patient
  skin damage from radiation treatment: did not suffer any apparent skin damage
[9]; nasopharyngeal carcinoma patient, chemotherapy and radiotherapy plus 20 injections of 0.19 mg TPA
  remission: in remission for two and a half years
[9]; non-small-cell lung cancer patient, gemcitabine and cisplatin plus 0.19 mg TPA each weekday for eight weeks
  side effects of chemotherapy: did not lose any hair and had significantly less nausea
[9]; non-small-cell lung cancer patient, gemcitabine and cisplatin plus TPA
  remission: in remission since Jun. 30, 2010
[9]; pancreatic cancer patient, TPA in addition to chemotherapy
  side effects of chemotherapy: significantly less vomiting and nausea than in prior chemotherapy treatments without TPA
[10]
  myasthenia gravis symptoms: asymptomatic
[11]
  HIV-cytopathic effects: inhibit the HIV-cytopathic effects on MT-4 cells
